Four molecules from ChEMBL document CHEMBL2074326 (Proc Natl Acad Sci U S A, 2004) can be followed below.

The target of data set [1] is T1, Solute carrier organic anion transporter family member 4C1 (Homo sapiens, UniProt Q6ZQN7).
T1 sequence (Q6ZQN7 whole entry): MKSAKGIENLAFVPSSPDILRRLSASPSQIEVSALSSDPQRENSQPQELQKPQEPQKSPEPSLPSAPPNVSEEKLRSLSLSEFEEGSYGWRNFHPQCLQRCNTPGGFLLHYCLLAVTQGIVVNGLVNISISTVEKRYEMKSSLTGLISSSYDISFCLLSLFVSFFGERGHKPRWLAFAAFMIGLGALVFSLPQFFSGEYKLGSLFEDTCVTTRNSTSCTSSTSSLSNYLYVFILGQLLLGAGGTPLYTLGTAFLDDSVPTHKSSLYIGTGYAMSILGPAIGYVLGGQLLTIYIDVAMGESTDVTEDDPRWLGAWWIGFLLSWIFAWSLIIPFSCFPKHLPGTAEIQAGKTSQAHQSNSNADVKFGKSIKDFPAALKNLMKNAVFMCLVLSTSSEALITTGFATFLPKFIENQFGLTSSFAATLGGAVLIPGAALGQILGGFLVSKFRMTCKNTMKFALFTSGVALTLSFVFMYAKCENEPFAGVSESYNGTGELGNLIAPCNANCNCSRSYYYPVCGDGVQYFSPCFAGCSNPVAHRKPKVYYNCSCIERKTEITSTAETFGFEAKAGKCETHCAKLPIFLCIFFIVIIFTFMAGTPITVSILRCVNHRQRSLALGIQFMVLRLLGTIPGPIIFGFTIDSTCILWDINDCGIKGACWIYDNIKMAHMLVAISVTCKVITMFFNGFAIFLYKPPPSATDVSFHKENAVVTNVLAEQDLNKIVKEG
Put plainly: TP_TRANSPORTER: inhibition of Digoxin uptake in OATP4C1-expressing MDCK cells. Type of data set: functional, cell-based.

Data set [2] deals with T1, Solute carrier organic anion transporter family member 4C1. Put plainly: TP_TRANSPORTER: inhibition of Triiodothyronine uptake in OATP4C1-expressing MDCK cells. It is filed as functional, cell-based.
Substrate in data set [3]: C[C@H]1O[C@@H](O[C@H]2[C@@H](O)C[C@H](O[C@H]3[C@@H](O)C[C@H](O[C@H]4CC[C@@]5(C)[C@H](CC[C@@H]6[C@@H]5C[C@@H](O)[C@]5(C)[C@@H](C7=CC(=O)OC7)CC[C@]65O)C4)O[C@@H]3C)O[C@@H]2C)C[C@H](O)[C@@H]1O
Put plainly: cells, lysate or membranes named.

Substrate in data set [4]: N[C@@H](Cc1cc(I)c(Oc2ccc(O)c(I)c2)c(I)c1)C(=O)O
The data set can be described thus: cells, lysate or membranes named.

For the molecule `C[C@]12CC[C@H](O)C[C@H]1CC[C@@H]1[C@@H]2C[C@@H](O)[C@]2(C)[C@@H](C3=CC(=O)OC3)CC[C@]12O` [DIGOXIGENIN], in data set [1], the IC50 worked out at 490 nM.

Regarding `C[C@H]1O[C@@H](O[C@H]2[C@@H](O)C[C@H](O[C@H]3[C@@H](O)C[C@H](O[C@H]4CC[C@@]5(C)[C@H](CC[C@@H]6[C@@H]5CC[C@]5(C)[C@@H](C7=CC(=O)OC7)CC[C@]65O)C4)O[C@@H]3C)O[C@@H]2C)C[C@H](O)[C@@H]1O` [DIGITOXIN], it took 120 nM to reach half-maximal inhibition in data set [1] (IC50). The molecule `N[C@@H](Cc1cc(I)c(Oc2cc(I)c(O)c(I)c2)c(I)c1)C(=O)O` [LEVOTHYROXINE] gave an IC50 in data set [2] of 8000 nM.

B1: Solute carrier organic anion transporter family member 4C1 (Homo sapiens) (protein)
chain: MKSAKGIENLAFVPSSPDILRRLSASPSQIEVSALSSDPQRENSQPQELQKPQEPQKSPEPSLPSAPPNVSEEKLRSLSLSEFEEGSYGWRNFHPQCLQRCNTPGGFLLHYCLLAVTQGIVVNGLVNISISTVEKRYEMKSSLTGLISSSYDISFCLLSLFVSFFGERGHKPRWLAFAAFMIGLGALVFSLPQFFSGEYKLGSLFEDTCVTTRNSTSCTSSTSSLSNYLYVFILGQLLLGAGGTPLYTLGTAFLDDSVPTHKSSLYIGTGYAMSILGPAIGYVLGGQLLTIYIDVAMGESTDVTEDDPRWLGAWWIGFLLSWIFAWSLIIPFSCFPKHLPGTAEIQAGKTSQAHQSNSNADVKFGKSIKDFPAALKNLMKNAVFMCLVLSTSSEALITTGFATFLPKFIENQFGLTSSFAATLGGAVLIPGAALGQILGGFLVSKFRMTCKNTMKFALFTSGVALTLSFVFMYAKCENEPFAGVSESYNGTGELGNLIAPCNANCNCSRSYYYPVCGDGVQYFSPCFAGCSNPVAHRKPKVYYNCSCIERKTEITSTAETFGFEAKAGKCETHCAKLPIFLCIFFIVIIFTFMAGTPITVSILRCVNHRQRSLALGIQFMVLRLLGTIPGPIIFGFTIDSTCILWDINDCGIKGACWIYDNIKMAHMLVAISVTCKVITMFFNGFAIFLYKPPPSATDVSFHKENAVVTNVLAEQDLNKIVKEG
As for B1, the Km in data set [3] worked out at 7.8 µM; in data set [4], 5.9 µM.
